# Source: patent US10334852B2, “Pyrido-1,3-oxazine-2,4-dione compounds with fungicidal activity” (Dow AgroSciences LLC, priority 2016, dated 2019)
# Where two headings read alike, the source gives them in different places.
# Columns and labels:
# [1] = tested on: Puccinia triticina; test: Wheat brown rust (PUCCRT) disease control on wheat seedlings; format: in vivo, Puccinia triticina on wheat plants (variety Yuma); conditions: LV activity at 121.5 g/H
# Method: Technical grades of materials were dissolved in acetone, which were then mixed with nine volumes of water (H2O) containing 110 ppm Triton X-100. The fungicide solutions were applied onto wheat seedlings using an automated booth sprayer to run-off. All sprayed plants were allowed to air dry prior to further handling. All fungicides were evaluated using the aforementioned method for their activity vs. all target diseases, unless stated otherwise. Wheat leaf blotch and brown rust activity were also evaluated using track spray applications, in which case the fungicides were formulated as EC formulations, containing 0.1% Trycol 5941 in the spray solutions. Wheat plants (variety Yuma) were grown from seed in a greenhouse in 50% mineral soil/50% soil-less Metro mix until the first leaf was fully emerged, with 7-10 seedlings per pot. These plants were inoculated with an aqueous spore suspension of Zymoseptoria tritici either prior to or after fungicide treatments. […] When disease symptoms were fully expressed on the 1st leaves of untreated plants, infection levels were assessed on a scale of 0 to 100 percent disease severity. Percent disease control was calculated using the ratio of disease severity on treated plants relative to untreated plants. […]
# [2] = tested on: Zymoseptoria tritici; test: Leaf blotch of wheat (SEPTTR) disease control on wheat seedlings; format: in vivo, Zymoseptoria tritici on wheat plants (variety Yuma); conditions: LV activity at 121.5 g/H
# Method: Technical grades of materials were dissolved in acetone, which were then mixed with nine volumes of water (H2O) containing 110 ppm Triton X-100. The fungicide solutions were applied onto wheat seedlings using an automated booth sprayer to run-off. All sprayed plants were allowed to air dry prior to further handling. All fungicides were evaluated using the aforementioned method for their activity vs. all target diseases, unless stated otherwise. Wheat leaf blotch and brown rust activity were also evaluated using track spray applications, in which case the fungicides were formulated as EC formulations, containing 0.1% Trycol 5941 in the spray solutions. Wheat plants (variety Yuma) were grown from seed in a greenhouse in 50% mineral soil/50% soil-less Metro mix until the first leaf was fully emerged, with 7-10 seedlings per pot. These plants were inoculated with an aqueous spore suspension of Zymoseptoria tritici either prior to or after fungicide treatments. […] When disease symptoms were fully expressed on the 1st leaves of untreated plants, infection levels were assessed on a scale of 0 to 100 percent disease severity. Percent disease control was calculated using the ratio of disease severity on treated plants relative to untreated plants.
compound,measurement,setting,value
CCc1cc(OC)ccc1C(c1ccc(OC)cc1OC)[C@H](C)OC(=O)[C@H](C)n1c(=O)oc2c(OC)ccnc2c1=O (stereo partly shown) [Compound 8],pest or weed control at 121.5 g/ha,"[1]; 24 h, 1 Day Protectant, read-out: PUCCRT 1DP disease control rating",≤ 80%
same,pest or weed control at 121.5 g/ha,"[1]; 72 h, 3 Day Curative, read-out: PUCCRT 3DC disease control rating",≤ 80%
same,pest or weed control at 121.5 g/ha,"[2]; 24 h, 1 Day Protectant, read-out: SEPTTR 1DP disease control rating",> 80%
same,pest or weed control at 121.5 g/ha,"[2]; 72 h, 3 Day Curative, read-out: SEPTTR 3DC disease control rating",> 80%
